Here are results for 13 compounds from ChEMBL document CHEMBL2029287, “Synthesis, study on anti-arthritic, anti-inflammatory activity and toxicity of some novel bis-oxy cyclophane diamides” (Bioorg Med Chem Lett, 2012).

For orientation: inhibition means the change of the read-out against control, counted positive when it falls.

Data set [1] is described as follows: In vitro antiarthritic activity assessed as inhibition of bovine serum albumin denaturation at 50 ug/mL incubated for 20 mins at 37 degC following rise in temperature up to 57 degC for 3 mins by UV-Visible spectrophotometry. The data set is classed as functional.
The nature of data set [2]: Antiinflammatory activity in human RBC assessed as membrane stabilization at 100 ug/mL after 30 mins by UV-Visible spectrophotometry. It is filed as functional, Erythrocyte.
Data set [3] in a line: Antiinflammatory activity in human RBC assessed as membrane stabilization at 10 ug/mL after 30 mins by UV-Visible spectrophotometry. It is filed as functional, Erythrocyte.
Data set [4] has as its system Erythrocyte. Briefly: Antiinflammatory activity in human RBC assessed as membrane stabilization after 30 mins by UV-Visible spectrophotometry. The data set is classed as functional.
The nature of data set [5]: In vitro antiarthritic activity assessed as inhibition of bovine serum albumin denaturation at 400 ug/mL incubated for 20 mins at 37 degC following rise in temperature up to 57 degC for 3 mins by UV-Visible spectrophotometry. It is filed as functional.
Data set [6] in a line: In vitro antiarthritic activity assessed as inhibition of bovine serum albumin denaturation incubated for 20 mins at 37 degC following rise in temperature up to 57 degC for 3 mins by UV-Visible spectrophotometry. It is filed as functional.
A short description of data set [7]: In vitro antiarthritic activity assessed as inhibition of bovine serum albumin denaturation at 800 ug/mL incubated for 20 mins at 37 degC following rise in temperature up to 57 degC for 3 mins by UV-Visible spectrophotometry. The data set is classed as functional.
A short description of data set [8]: Antiinflammatory activity in human RBC assessed as membrane stabilization at 50 ug/mL after 30 mins by UV-Visible spectrophotometry. The data set is classed as functional, Erythrocyte.
A short description of data set [9]: In vitro antiarthritic activity assessed as inhibition of bovine serum albumin denaturation at 200 ug/mL incubated for 20 mins at 37 degC following rise in temperature up to 57 degC for 3 mins by UV-Visible spectrophotometry. It is filed as functional.
The nature of data set [10]: In vitro antiarthritic activity assessed as inhibition of bovine serum albumin denaturation at 100 ug/mL incubated for 20 mins at 37 degC following rise in temperature up to 57 degC for 3 mins by UV-Visible spectrophotometry. It is filed as functional.
A short description of data set [11]: Antiinflammatory activity in human RBC assessed as membrane stabilization at 200 ug/mL after 30 mins by UV-Visible spectrophotometry. It is filed as functional, Erythrocyte.
Data set [12] has as its system Salmonella typhimurium. Kind of data set: Mutagenic activity in Salmonella typhimurium TA 98 assessed as increase in revertants at 0.039 to 5 mg/plate after 48 hrs by Ames test relative to control. It is filed as toxicity, organism-based. As to conditions: salmonella enterica subsp. enterica serovar typhimurium. A general note: The Ames test detects mutagens through reverse mutation in bacteria.

Data set [13] has as its system Salmonella typhimurium. Briefly: Mutagenic activity in Salmonella typhimurium TA 98 assessed as increase in revertants at 0.012 to 1.660 mg/plate after 48 hrs by Ames test in presence of S9 liver fraction relative to control. It is filed as toxicity, organism-based. As to conditions: salmonella enterica subsp. enterica serovar typhimurium.
Data set [14] has as its system Salmonella typhimurium. Kind of data set: Mutagenic activity in Salmonella typhimurium TA 100 assessed as increase in revertants at 0.039 to 5 mg/plate after 48 hrs by Ames test in presence of S9 liver fraction relative to control. The data set is classed as toxicity, organism-based. The note with it: salmonella enterica subsp. enterica serovar typhimurium.
For data set [15], the system named is Salmonella typhimurium. Kind of data set: Mutagenic activity in Salmonella typhimurium TA 100 assessed as increase in revertants at 0.012 to 1.660 mg/plate after 48 hrs by Ames test relative to control. The data set is classed as toxicity, organism-based. As to conditions: salmonella enterica subsp. enterica serovar typhimurium.
Data set [16] concerns Salmonella typhimurium. Kind of data set: Mutagenic activity in Salmonella typhimurium TA 98 assessed as increase in revertants at 0.012 to 1.660 mg/plate after 48 hrs by Ames test relative to control. The note with it: salmonella enterica subsp. enterica serovar typhimurium. The data set is classed as toxicity, organism-based.
Data set [17] has as its system Salmonella typhimurium. Briefly: Mutagenic activity in Salmonella typhimurium TA 100 assessed as increase in revertants at 0.039 to 5 mg/plate after 48 hrs by Ames test relative to control. It is filed as toxicity, organism-based. As to conditions: salmonella enterica subsp. enterica serovar typhimurium.
Data set [18] has as its system Salmonella typhimurium. Kind of data set: Mutagenic activity in Salmonella typhimurium TA 100 assessed as increase in revertants at 0.012 to 1.660 mg/plate after 48 hrs by Ames test in presence of S9 liver fraction relative to control. The data set is classed as toxicity, organism-based. As to conditions: salmonella enterica subsp. enterica serovar typhimurium.
In data set [19] the test system is Salmonella typhimurium. Briefly: Mutagenic activity in Salmonella typhimurium TA 98 assessed as increase in revertants at 0.039 to 5 mg/plate after 48 hrs by Ames test in presence of S9 liver fraction relative to control. The data set is classed as toxicity, organism-based. The note with it: salmonella enterica subsp. enterica serovar typhimurium.

For `O=C1NCc2ccc(cc2)-c2cccc(c2)-c2ccc(cc2)CNC(=O)c2cccc(c2)OCc2cc(cc([N+](=O)[O-])c2)COc2cccc1c2`, the inhibition in data set [1] is 23.6%; in data set [5], 82.1%; in data set [6] it was “Dose-dependent effect”; in data set [7] it was 94.4%; in [9] it was 73.1%; in data set [10], 49.6%. Moreover, the Activity in data set [2] is 85.66%; in data set [3] it was 66.71%; in [4] it was “Dose-dependent effect”; in [8], 75.97%; in [11] it was 95.5%.

In the case of `O=C1COc2ccc3ccc(cc3c2)OCC(=O)NCc2ccc(cc2)-c2cccc(c2)-c2ccc(cc2)CN1`, the inhibition in data set [1] is 20.1%; in data set [5], 84.3%; in data set [6], “Dose-dependent effect”; in data set [7], 90.6%; in [9], 67.9%; in data set [10] it was 49.5%. The Activity was 90.9% in data set [2]; 76.5% in [3]; “Dose-dependent effect” in data set [4]; 85.5% in [8]; 97.2% in data set [11].

As for `O=C1COc2cccc(c2)OCC(=O)NCc2ccc(cc2)-c2cccc(c2)-c2ccc(cc2)CN1`, the inhibition was 14.5% in data set [1]; 83.3% in data set [5]; “Dose-dependent effect” in data set [6]; 96.8% in data set [7]; 60.5% in data set [9]; 25.4% in data set [10]. The Activity in data set [3] is 74.5%; in [4] it was “Dose-dependent effect”; in [8] it was 85.4%; in data set [11], 96.4%.

On to `O=C1COc2ccccc2-c2ccccc2OCC(=O)NCc2ccc(cc2)-c2cccc(c2)-c2ccc(cc2)CN1`, for which the inhibition in data set [1] was 40.5%; in data set [5] it was 81.4%; in [6] it was “Dose-dependent effect”; in [7], 98.2%; in data set [9], 76.2%; in data set [10], 61.9%. Also, the Activity in data set [2] was 93.77%; in data set [3], 74.2%; in data set [4], “Dose-dependent effect”; in data set [8], 85.65%; in data set [11], 96.03%.

For the compound `C[C@]12C=CC(=O)C=C1CC[C@@H]1[C@@H]2[C@@H](O)C[C@@]2(C)[C@H]1CC[C@]2(O)C(=O)CO` [PREDNISOLONE], the Activity in [2] is 84.87%; in data set [3], 46.03%; in [8], 57.94%; in data set [11] it was 91.01%.

In the case of `O=C(O)Cc1ccccc1Nc1c(Cl)cccc1Cl`, the inhibition came out at 5.3% in data set [1]; 21.3% in [5]; 76.5% in [7]; 15% in data set [9]; 10.9% in data set [10].

Regarding `O=C1NCc2ccc(cc2)-c2cccc(c2)-c2ccc(cc2)CNC(=O)c2cccc(c2)OCc2ccccc2-c2ccccc2COc2cccc1c2`, the Ratio entry in data set [12], in data set [13], in [14], in [15], in [16] and in data set [17] was “<= 2” in each case. Moreover, the Ratio entry in [18] and in data set [19] was “<= 2” each time. For the same compound, the inhibition was 39.2% in data set [1]; 75.7% in data set [5]; “Dose-dependent effect” in data set [6]; 87.8% in data set [7]; 67.8% in data set [9]; 49.5% in data set [10]. Also, the Activity in [2] is 91.2%; in data set [3] it was 70.27%; in [4], “Dose-dependent effect”; in [8], 82.6%; in data set [11] it was 93.3%.

For `O=C1NCc2ccc(cc2)-c2cccc(c2)-c2ccc(cc2)CNC(=O)c2cccc(c2)OCc2ccc(cc2)COc2cccc1c2`, the inhibition in data set [1] was 13.1%; in data set [5] it was 67.7%; in data set [6], “Dose-dependent effect”; in [7] it was 83.9%; in data set [9], 55.3%; in data set [10], 36.8%. Further, the Activity is 82.2% in [2]; 57.63% in data set [3]; “Dose-dependent effect” in data set [4]; 66.7% in data set [8]; 91.8% in data set [11].

Take `O=C1NCc2ccc(cc2)-c2cccc(c2)-c2ccc(cc2)CNC(=O)c2cccc(c2)OCc2cccc(c2)COc2cccc1c2`: the inhibition was 19.4% in data set [1]; 78.3% in data set [5]; “Dose-dependent effect” in data set [6]; 90.5% in data set [7]; 63.4% in [9]; 44.8% in data set [10]. Moreover, the Activity in data set [2] is 83.07%; in [3], 64.27%; in [4] it was “Dose-dependent effect”; in data set [8] it was 72.53%; in data set [11], 93.03%.

For `O=C1NCc2ccc(cc2)-c2cccc(c2)-c2ccc(cc2)CNC(=O)c2cccc(c2)OCc2ccccc2COc2cccc1c2`, the inhibition was 25.4% in data set [1]; 81.9% in data set [5]; “Dose-dependent effect” in data set [6]; 92.4% in data set [7]; 72.1% in data set [9]; 50.1% in data set [10]. The Activity in data set [2] was 82.3%; in [3], 64.03%; in [4], “Dose-dependent effect”; in [8] it was 73.33%; in data set [11], 92.37%.

On to `O=C1NCc2ccc(cc2)-c2cccc(c2)-c2ccc(cc2)CNC(=O)c2cccc(c2)OCc2cccc(n2)COc2cccc1c2`, for which the inhibition in [1] is 22%; in [5], 70%; in data set [6] it was “Dose-dependent effect”; in data set [7], 82.4%; in data set [9] it was 56.3%; in data set [10] it was 38.2%. Besides, the Activity in data set [2] was 84.73%; in [3], 70.23%; in [4], “Dose-dependent effect”; in data set [8] it was 76.93%; in data set [11], 95.1%.

Take `O=C1NCc2ccc(cc2)-c2cccc(c2)-c2ccc(cc2)CNC(=O)c2cccc(c2)OCc2ccc(cc2)-c2cccc(c2)-c2ccc(cc2)COc2cccc1c2`: the Ratio entry in data set [12], in [13], in data set [14], in [15], in data set [16] and in data set [17] was “<= 2” in each case. For the same compound, the Ratio entry in data set [18] and in data set [19] was “<= 2” throughout. The inhibition in data set [1] is 12.6%; in [5], 68.6%; in [6], “Dose-dependent effect”; in data set [7], 78.2%; in data set [9], 48.5%; in data set [10], 25.2%. In addition, the Activity was 82.51% in [2]; 61.89% in [3]; “Dose-dependent effect” in data set [4]; 71.74% in [8]; 91.59% in data set [11].

Turning to `O=C1COc2ccc3ccccc3c2-c2c(ccc3ccccc23)OCC(=O)NCc2ccc(cc2)-c2cccc(c2)-c2ccc(cc2)CN1`, the inhibition in [1] was 11.7%; in data set [5], 69.9%; in [6], “Dose-dependent effect”; in data set [7], 81.9%; in data set [9] it was 59.7%; in data set [10] it was 37%. The Activity was 90.6% in data set [2]; 77.3% in data set [3]; “Dose-dependent effect” in data set [4]; 86.2% in data set [8]; 97.7% in data set [11].
